Laboratory results: patent publication US20120015923A1, “USE OF ANDROGRAPHOLIDE COMPOUNDS FOR TREATING INFLAMMATION AND AIRWAY DISORDERS” (NATIONAL UNIVERSITY OF SINGAPORE, priority 2009, published 2012)

Legend:
Format in all cases: in vivo, BALB/c mice
[1] = test system: IL-4, IL-5, IL-13, eotaxin and IFN-γ in the BAL fluid; test: Cytokine and chemokine levels in BAL fluid (ELISA), OVA mouse asthma model; settings: OVA-challenged mice
[2] = test system: OVA-induced inflammatory cell recruitment; test: BAL fluid total and differential inflammatory cell counts, OVA mouse asthma model; settings: for total cell count in BAL fluid: 0.1, 0.5 and 1 mg/kg i.p. 2 h before and 10 h after each challenge; for total cell count in BAL fluid / eosinophil count in BAL fluid: BAL fluid 24 hours after last OVA aerosol, vs DMSO control; for eosinophil count in BAL fluid: 0.1, 0.5 and 1 mg/kg i.p.; for OVA-induced inflammatory cell counts in BAL fluid: sensitized mice 24 hours after last OVA aerosol challenge, 0.1, 0.5, 1 mg/kg
Experimental: Female BALB/c mice (Interfauna, East Yorkshire, UK), were housed in appropriate cages (maximum 4 mice/cage) at the Animal Holding Unit (AHU), NUS. The temperature and humidity of the housing environment were maintained at approximately 22° C. and 55% respectively. Commercial mouse feed and water were provided ad libitum. The beddings were changed three times a week to ensure cleanliness of the living conditions. The handling of mice and the experiments carried out strictly followed the guidelines approved by the Institutional Animal Care and Use Committee (IACUC) of NUS, Singapore.
All mice were acclimatized for at least one week before sensitization. A sensitization mixture was prepared by dissolving 20 μg of OVA and 4 mg of Al(OH)3 in 0.1 ml of Saline. The murine asthma model was developed by sensitizing the mice with 0.1 ml of sensitization mixture on Day 0 and Day 14 using intraperitoneal (i.p.) injections.
The sensitized mice were subjected to airway challenge to produce both the control model as well as the asthma model. A challenge mix was prepared by dissolving 0.15 g OVA into 15 ml of saline solution. The mice were then challenged with aerosolized 1% OVA for 30 minutes on Day 22, 23, 24 to stimulate asthmatic response. A negative control for the asthma model was developed by performing saline challenge on several mice. In this case, 15 ml of saline was used as the challenge mix.
Andrographolide or DDAG alone (0.1, 0.5, and 1 mg/kg; Sigma, St. Louis, Mo.) or vehicle (1% dimethyl sulfoxide [DMSO]) in 0.1 ml saline was given by intraperitoneal injections 2 hour before and 10 hours after each OVA aerosol challenge. Andrographolide or 14-deoxy-11,12-didehydroandrographolide (DDA) were prepared from stock. DMSO was used as a solvent to dissolve Andrographolide or DDA. A stock solution of 10 mg/ml was prepared and stored at −20° C. When used, the stock solution was thawed and diluted with Saline solution to form three different drug concentrations: 0.01 mg/ml, 0.05 mg/ml and 0.1 mg/ml.
Bronchoalveolar lavage (BAL) was conducted on Day 25, 24 hours after the final OVA/saline challenge. Mice were anaesthetized by 0.3 ml i.p. injections of an anesthetic cocktail (ketamine: medetomidine: H2O=3:4:33, Parnell, Alexandria NSW, Australia & Pfizer, Auckland, New Zealand) with 27 G½ sterile needle (PrecisionGlide®). Mice were sacrificed by cervical dislocation 5 minutes after anesthetization. 25 G½ sterile needles (PrecisionGlide®) were used for blood extraction. […] Tracheotomy was then performed and a small transverse incision was made on the exposed trachea. Blunt needles (20 G), which were connected to 1 ml sterile syringes, were inserted into the trachea through this incision and 0.5 ml of ice-cold PBS (4° C.) was instilled thrice into the lungs (0.5 ml×3). About 1.2-1.4 ml of BAL fluid was retrieved from each mouse and was kept in −80° C. for subsequent experiments.
BAL fluid collected from the lungs of the mouse was centrifuged at 3000 rpm for 5 min at 4° C. The supernatant was collected and stored at −80° C. The pellet was resuspended in 200 μl of 0.875% NH4Cl (8.75 mg NH4Cl in 1 ml MilliQ water) and incubated for 5 minutes at room temperature to remove unwanted erythrocytes. The cell suspension was then centrifuged at 3000 rpm for 5 min at 4° C. The supernatant was discarded and the pellet containing inflammatory cells was resuspended in 200 μl of RPMI with 1% BSA (10 mg BSA in 1 ml RPMI). The total number of viable cells was enumerated using a haemocytometer (10 μl of 0.4% trypan blue: 10 μl of cell suspension), under a microscope at 200×magnification.
Following the total cell count, dilutions were performed on the BAL fluid collected with the RPMI/BSA solution (1×10^5 cells per 150 μl of RPMI/BSA). Cytocentrifugation was then carried out on all samples using a Cytospin centrifuge (Thermo Shandon, Pittsburgh, USA) at 600 g for 10 minutes to fix the cells on glass slides. […]

p65 NF-κB = p65 NF-κB nuclear translocation and DNA-binding in lung tissue nuclear extracts; settings: 1 mg/kg; 24 hours after last OVA aerosol; reduced to the basal levels
Experimental: Lung and cell culture nuclear proteins ([…]) were isolated. Lysates were incubated on ice for 30 min before centrifugation (18,000 g for 5 min). The supernatants were collected, and protein concentrations were determined using a BCA protein assay kit. 28 μl of the protein measured were mixed with 7 μl 5× sample buffer and boiled at 95° C. for 5 min. 10% SDS-PAGE gel was set as known in the art. The gel was placed in a Trans-Blot tank (Bio-Rad Laboratories, Hercules, Calif.). 30 μl of the sample mixtures and Pre-stained SDS Page Marker (Bio-Rad Laboratories, Hercules, Calif.) were loaded into respective wells and ran at 100V for 2 hours. The proteins were then transferred to a PVDF membrane using a semi-dry transblotter (ATTO Corp, Tokyo, Japan). The PVDF membrane was blocked with 5% non-fat milk in Tween-20 Tris buffered saline (TTBS) for 2 hours and probed with various primary antibodies in 1% non-fat milk in TTBS (1:2,000 for anti-rabbit antibodies; 1:5,000 for anti-mouse antibodies; 1:10,000 for β-actin) overnight at 4° C. The PVDF was then washed with TTBS for 10 times (2-3 min each), and incubated in HRP- or AP-conjugated anti-mouse or anti-rabbit antibodies for 1 hour. The membrane was again washed with TTBS. […]
Nuclear proteins were also analyzed for NF-κB DNA-binding activity using the TransAM p65 transcription factor assay kit (Active Motif, Carlsbad, Calif.).

Nitric Oxide (NO) = test: Serum nitrate nitrite level; settings: OVA-challenged mice
[3] = OVA-challenged mice, high dose 1 mg/kg i.p.

Row | Structure (SMILES) | GM-CSF level in BAL fluid [1] | TNF-α level in BAL fluid [1] | total cell count in BAL fluid ([2]; OVA-challenged mice) | eosinophil count in BAL fluid ([2]; OVA-challenged mice) | OVA-induced lymphocyte counts in BAL fluid ([2]; OVA-challenged mice, dose not stated) | OVA-induced inflammatory cell counts in BAL fluid [2] | nuclear p65 DNA-binding activity in lung tissue nuclear extract (p65 NF-κB) | nuclear p65 amount in lung tissue nuclear extract (p65 NF-κB) | serum nitrate nitrite level (Nitric Oxide (NO)) | lymphocyte count in BAL fluid [2, 3] | macrophage count in BAL fluid [2, 3] | anti-inflammatory effects in mouse asthma model ([2]; low dose given alone)
1 | C=C1CC[C@@H]2[C@](C)(CO)[C@H](O)CC[C@@]2(C)[C@@H]1C/C=C1/C(=O)OC[C@H]1O [Andrographolide] | inhibited | inhibited | inhibited | inhibited | inhibited | dose-dependently reduced | – | – | – | – | – | –
2 | C=C1CCC2C(C)(CO)C(O)CCC2(C)C1C=CC1=CCOC1=O (stereo not drawn) [DDAG, 14-Deoxy-11,12-didehydroandrographolide] | – | – | drastically decreased | drastically decreased | – | dose-dependently reduced | significantly (P<0.05) reduced | significantly (P<0.05) reduced | reduce | reduced | reduced | do not show any anti-inflammatory effects
